Patent publication US20250302913A1, “LACRIPEP PROMOTES NEUROREGENERATION AND MAINTAINS EPITHELIAL PROGENITOR CELL IDENTITY” (The Regents of The University of California, priority 2022, published 2025)

How the values were obtained:
Type in all cases: in vivo, mouse
Aire KO mice = experiment: Pilocarpine-stimulated (maximal) tear secretion in Aire KO mice; details: between Aire KO treatment conditions; 4.5 mg/kg pilocarpine i.p.
Text: We next tested whether lacripep restored basal cell identity and barrier function by reducing immune cell infiltration. Prolonged desiccating stress from reduced tear production elicits an immune response in which activated CD4+ T cells home to the corneal epithelium and stroma (primarily accumulating at the limbal region) to modulate epithelial differentiation (17) and direct the development of autoimmune mediated dry eye (18).
Aire KO female mice aged 5 weeks were used for the study. All mice were topically treated with 5 μL per eye of 4 μM lacripep. Dosing was three times daily for 14 consecutive days. Lissamine green staining assessment and tear secretion assays were performed on each eye before treatment at baseline, 7 days and 14 days post treatment
Mice were anesthetized with isoflurane and basal tear secretion was then measured using a Zone-Quick phenol red thread (as indicated by the length of the tear-absorbed region in 15 seconds). Stimulated tear secretion was measured after 4.5 mg/kg of pilocarpine diluted in saline was injected into the peritoneum (i.p.). Ten minutes later, mice were anesthetized with isoflurane and tear secretion was measured using a Zone-Quick phenol red thread (Showa Yakuhin Kako Co. Ltd., Tokyo, Japan).

ZO1 = experiment: Immunofluorescent quantification of tight junction protein ZO1 in corneal epithelium; details: day 15; Aire KO cornea
Text: As dry eye results in disruption of ocular surface integrity resulting in cornea barrier dysfunction and, consequently, fluid loss and pathogen invasion (11), we next determined whether lacripep maintains corneal epithelial architecture by analyzing lissamine green uptake at day 7 and 15. […] Restoration of barrier function was further confirmed by analyzing the superficial epithelial layers for the tight junction protein ZO1 which is essential to the structural integrity of the corneal epithelium (12).
Immunohistological and immunofluorescent analyses of cornea and lacrimal gland samples were performed as previously described (8). […]
For immunofluorescent analysis, 7 or 20 μm tissue sections were incubated with the following primary antibodies: mouse anti-ZO1 conjugated to Alexa594 (1:1000, Life Technologies, Cat 339194), rabbit anti-KRT6A (1:800, Cell Signaling, Cat 4912S), chicken anti-KRT14 (1:1500, Santa Cruz, Cat 515882), rat anti-Ki67 (1:200, Biolegend, 652405), rat anti-CD4 (1:200, Santa Cruz), rabbit anti-TUBB3 (1:500, Cell Signaling, Cat 5568S), and rat anti-Ecadherin (1:300, Life Technologies, Cat 131900). Antibodies were detected using Cy2-, Cy3- or Cy5-conjugated secondary Fab fragment antibodies (Jackson Laboratories), and nuclei were stained with Hoechst 33342 (1:3000, Sigma-Aldrich). […]
Quantification of tight junction protein ZO1. […]

KRT14+ basal cells = experiment: Basal progenitor identity (KRT14/KRT6A) and proliferation (Ki67) in cornea; details: 2 wks treatment; Aire KO cornea
Text: Although it has been well established that basal progenitor cells (also referred to as transit amplifying cells (13)) undergo mitosis and migration (14) to give rise to the barrier forming suprabasal epithelial and stratified squamous epithelial cells, the impact of dry eye disease on basal cell identity and differentiation remains largely unknown. Thus, we questioned whether basal cell identity was altered in the desiccated cornea through defining the cellular location of KRT6A, a marker of early epithelial cell differentiation in skin (15) and cultured cornea epithelial cells (16). Accordingly, we confirmed that KRT6A marks differentiated corneal epithelial cell types in vivo, as shown by its exclusive expression in KRT14-deficient suprabasal and superficial epithelial cells of healthy cornea at 7 wks of age (FIG. 1G). […] To determine if changes in cell identity alters progenitor cell division, we analyzed the percentage of proliferating K14+ basal cells in treated and untreated corneas. […]
Quantification of corneal epithelial basal progenitor identity and proliferation. The number of basal KRT14+ and KRT14+ KRT6A+ basal epithelial cells were counted in 350 μm sections of central cornea. […] The number of proliferating epithelial progenitors (Ki67+ KRT14+) was presented as a percentage of total KRT14+ cells counted in 350 μm sections of central cornea.

Substance: Ac-KQFIENGSEFAQKLLKKFSLLKPWA-NH2 [lacripep, amino terminus acetylated, carboxyl terminus aminated]
- maximal tear secretion in response to pilocarpine (Aire KO mice): no difference
- ZO1 expression in superficial epithelial layers (ZO1): mimicked that of WT controls
- basal cell identity (KRT6A in KRT14+ basal cells) (KRT14+ basal cells): returned to that of WT tissue
